# Experimental data: US20260001914A1, “MACROCYCLIC PEPTIDES TARGETING KRAS” (Merck Sharp & Dohme LLC, priority 2022, published 2026)
# *1 amine or outer side, *2 acyl side, *3 side chain or, on linkers, in order; H or OH if unused. Where a SMILES comes first, the peptide text is derived from it. Bridges are numbered along the chain shown (N, C = ends). [ ]: non-standard residue; d: D form. X34 = O=C(C[C@@H](Cc1ccccc1)C(=O)[*:2])C12CC(CN[*:1])(C1)C2; X48 = CCCC[C@@H](/C=C\[C@@H](Cc1cccnc1)C(=O)[*:2])N[*:1]; Phe(4-guanidino) = N=C(N)Nc1ccc(C[C@H](N)C(=O)O)cc1; X18 = CNC(=N)N(C)c1ccc(C[C@H](N[*:1])C(=O)[*:2])cc1; Ala(pyrimidin-5-yl) = N[C@@H](Cc1cncnc1)C(=O)O; X29 = CC(=O)N(C)CCC[C@@H](C(=O)[*:2])N(C)[*:1]; X6 = O=C([C@H](Cc1cnn(C2COC2)c1)N[*:1])[*:2]; Ala(thiazol-5-yl) = N[C@@H](Cc1cncs1)C(=O)O; NMe3Pal(5-F) = CN[C@@H](Cc1cncc(F)c1)C(=O)O; NMeHis(τ-Me) = CN[C@@H](Cc1cn(C)cn1)C(=O)O; X25 = O=C([C@H](Cc1ccc(F)nc1)N[*:1])[*:2]; Lys(N3) = [N-]=[N+]=NCCCC[C@H](N)C(=O)O; X11 = CC(C)(F)CC[C@H](N[*:1])C(=O)[*:2]; Nle(5,5-F2) = CC(F)(F)CC[C@H](N)C(=O)O; X40 = CC(C)(F)C[C@H](N[*:1])C(=O)[*:2]; X21 = O=C([C@@H]1C[C@H]1CN[*:1])[*:2]; Ala(cPent) = N[C@@H](CC1CCCC1)C(=O)O; Phe(2-F) = N[C@@H](Cc1ccccc1F)C(=O)O; NMe3Pal = CN[C@@H](Cc1cccnc1)C(=O)O; X1 = O=C(C12CC(CN[*:1])(C1)C2)[*:2]; NMeCha = CN[C@@H](CC1CCCCC1)C(=O)O; NMeOrn(Me) = CNCCC[C@H](NC)C(=O)O; NMeR = CN[C@@H](CCCNC(=N)N)C(=O)O; Ala(cPr) = N[C@@H](CC1CC1)C(=O)O; NMeF = CN[C@@H](Cc1ccccc1)C(=O)O; PhLac = O=C(O)[C@@H](O)Cc1ccccc1; 3Pal = N[C@@H](Cc1cccnc1)C(=O)O; Ahp(2) = CCCCC[C@H](N)C(=O)O; Cba = N[C@@H](CC1CCC1)C(=O)O; hLeu = CC(C)CC[C@H](N)C(=O)O; NMeAbu = CC[C@H](NC)C(=O)O; αMeC = C[C@](N)(CS)C(=O)O; NMeA = CN[C@@H](C)C(=O)O; Nle = CCCC[C@H](N)C(=O)O; Nva = CCC[C@H](N)C(=O)O
# Biological target: phosphorylation levels of ERK1/2 in AsPC-1 (homozygous KRAS-G12D) cells (Homo sapiens, UniProt P01116, G12D)
# Assay: Cellular phospho-ERK assay in AsPC-1 cells (Alpha Screen), assay medium without fetal bovine serum;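 note: signal taken as phospho-ERK over total ERK per well, both detected in one multiplex bead assay, EC50 from four-parameter logistic fit of dose-response curves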
# Type: cell-based
# Conditions: phospho-ERK AlphaScreen, 18 h
# Sequence of phosphorylation levels of ERK1/2 in AsPC-1 (homozygous KRAS-G12D) cells (P01116 1-186 G12D): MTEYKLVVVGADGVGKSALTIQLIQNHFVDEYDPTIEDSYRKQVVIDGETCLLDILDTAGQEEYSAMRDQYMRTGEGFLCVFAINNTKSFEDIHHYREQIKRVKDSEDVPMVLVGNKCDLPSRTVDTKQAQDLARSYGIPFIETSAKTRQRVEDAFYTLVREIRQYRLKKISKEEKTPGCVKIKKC
row,SMILES,EC50
1,"CCCC[C@@H]1NC(=O)[C@H](Cc2cccnc2)NC(=O)[C@H](CC)N(C)C(=O)[C@H](Cc2ccccc2)OC(=O)C23CC(CNC(=O)[C@H](Cc4cccnc4)N(C)C(=O)[C@H](CCCC)NC(=O)[C@H](Cc4ccccc4F)NC1=O)(C2)C3 [compound 404, cyclo(FLac-NMeAbu-3Pal-Nle-Phe2F-Nle-NMe3Pal-amBCP)] (cyclo([3Pal][Nle][Phe(2-F)][Nle][NMe3Pal][X1][PhLac][NMeAbu]))",31 µM
2,"CCCCC[C@@H]1NC(=O)[C@H](Cc2ccc(OC)cc2)NC(=O)[C@H](CC2CCC2)NC(=O)[C@H](Cc2ccc(NC(=N)N)cc2)NC(=O)[C@H](CCCNC)N(C)C(=O)[C@H](Cc2ccccc2)NC(=O)CSC[C@@](C)(C(N)=O)NC(=O)[C@H](Cc2ccccc2)N(C)C1=O [compound 385, cyclo(F-NMeOrnMe-Phe4Gn-cBuA-TyrOMe-Ahp-NMeF-aMeCl-ClAc)] ({CH2CO}-F[NMeOrn(Me)][Phe(4-guanidino)][Cba]Y(Me)[Ahp(2)][NMeF][αMeC]-NH2; thioether N-8)",> 50.8 µM
3,"C[C@H]1C(=O)N[C@@H](Cc2cnn(C3COC3)c2)C(=O)N[C@@H](CC2CC2)C(=O)N[C@@H](Cc2ccccc2F)C(=O)N[C@@H](CCC(C)(F)F)C(=O)N(C)[C@@H](Cc2ccccc2)C(=O)NCC23CC(C2)(C3)C(=O)O[C@@H](Cc2ccccc2)C(=O)N1C [compound 291, cyclo(FLac-NMcA-AlaPyzlOx-cPrA-Phe2F-Nle3F2-NMeF-amBCP)] (cyclo([Ala(cPr)][Phe(2-F)][Nle(5,5-F2)][NMeF][X1][PhLac][NMeA][X6]))",3.25 µM
4,"C[C@H]1C(=O)N[C@@H](Cc2cncnc2)C(=O)N[C@@H](CC2CC2)C(=O)N[C@@H](Cc2ccccc2F)C(=O)N[C@@H](CCC(C)(C)F)C(=O)N(C)[C@@H](Cc2ccccc2)C(=O)NCC23CC(C2)(C3)C(=O)C[C@@H](Cc2ccccc2)C(=O)N1C [compound 273, cyclo(CPhe-NMeA-PyrimAla-cPrA-Phe2F-hL3F-NMeF-amBCP)] (cyclo([Ala(cPr)][Phe(2-F)][X11][NMeF][X34][NMeA][Ala(pyrimidin-5-yl)]))",1.23 µM
5,"CCCC[C@@H]1NC(=O)[C@H](Cc2ccc(N(C)C(=N)NC)cc2)NC(=O)[C@H](C)N(C)C(=O)[C@H](Cc2ccccc2)OC(=O)CSC[C@@](C)(C(N)=O)NC(=O)[C@H](Cc2cccnc2)N(C)C(=O)[C@H](CCCC)NC(=O)[C@H](Cc2ccccc2F)NC1=O [compound 397, cyclo(FLac-NMeA-Phe4GnMeMe-Nle-Phe2F-Nle-NMe3Pal-aMeCl-ClAc)] ({CH2CO}-[PhLac][NMeA][X18][Nle][Phe(2-F)][Nle][NMe3Pal][αMeC]-NH2; thioether N-8)",> 50.8 µM
6,"CCCCC[C@@H]1NC(=O)[C@H](Cc2ccc(OC)cc2)NC(=O)[C@H](CC2CCC2)NC(=O)[C@H](Cc2cncs2)NC(=O)[C@H](CCCNC(=N)N)NC(=O)[C@H](Cc2ccccc2)NC(=O)CSC[C@@](C)(C(N)=O)NC(=O)[C@H](Cc2ccccc2)N(C)C1=O [compound 363, cyclo(F-R-TZAla-cBuA-TyrOMe-Ahp-NMeF-aMeCl-ClAc)] ({CH2CO}-FR[Ala(thiazol-5-yl)][Cba]Y(Me)[Ahp(2)][NMeF][αMeC]-NH2; thioether N-8)",> 50.8 µM
7,"CCCC[C@@H]1NC(=O)[C@H](Cc2ccccc2F)NC(=O)[C@H](CC2CCCC2)NC(=O)[C@H](Cc2cncnc2)NC(=O)[C@H](C)N(C)C(=O)[C@H](Cc2ccccc2)OC(=O)C23CC(CNC(=O)[C@H](Cc4cccnc4)N(C)C1=O)(C2)C3 [compound 126, cyclo(FLac-NMeA-PyrimAla-cPeA-Phe2F-Nle-NMe3Pal-amBCP)] (cyclo([Ala(cPent)][Phe(2-F)][Nle][NMe3Pal][X1][PhLac][NMeA][Ala(pyrimidin-5-yl)]))",17.4 µM
8,"CC(C)CC[C@@H]1NC(=O)[C@H](Cc2ccccc2F)NC(=O)[C@H](CC(C)(C)F)NC(=O)[C@H](Cc2cncnc2)NC(=O)[C@H](C)N(C)C(=O)[C@H](Cc2ccccc2)OC(=O)C23CC(CNC(=O)[C@H](Cc4ccccc4)N(C)C1=O)(C2)C3 [compound 136, cyclo(FLac-NMeA-PyrimAla-Leu3F-Phe2F-hL-NMeF-amBCP)] (cyclo([NMeA][Ala(pyrimidin-5-yl)][X40][Phe(2-F)][hLeu][NMeF][X1][PhLac]))",7.73 µM
9,"CCCCC[C@@H]1NC(=O)[C@H](Cc2ccc(OC)cc2)NC(=O)[C@H](CC2CCC2)NC(=O)[C@H](Cc2ccc(N3CCC[C@H]3CN)cc2)NC(=O)[C@H](CCCNC(=N)N)NC(=O)[C@H](Cc2ccccc2)NC(=O)CSC[C@@](C)(C(N)=O)NC(=O)[C@H](Cc2ccccc2)N(C)C1=O [compound 392, cyclo(F-R-Phe4SamPyrr-cBuA-TyrOMe-Ahp-NMeF-aMeCl-ClAc)]",> 50.8 µM
10,"CCCC[C@@H]1NC(=O)[C@H](Cc2ccc(F)nc2)NC(=O)[C@H](C)N(C)C(=O)[C@H](Cc2ccccc2)OC(=O)C23CC(CNC(=O)[C@H](Cc4ccccc4)N(C)C(=O)[C@H](CCC)NC(=O)[C@H](Cc4ccccc4F)NC1=O)(C2)C3 [compound 234, cyclo(FLac-NMeA-4F3Pal-Nle-Phe2F-Nva-NMeF-amBCP)] (cyclo([NMeA][X25][Nle][Phe(2-F)][Nva][NMeF][X1][PhLac]))",> 50.8 µM
11,"CCCC[C@@H]1NC(=O)[C@H](Cc2cccnc2)NC(=O)[C@H](CCCN(C)C(C)=O)N(C)C(=O)[C@H](Cc2ccccc2)OC(=O)C23CC(CNC(=O)[C@H](Cc4cccnc4)N(C)C(=O)[C@H](CCCC)NC(=O)[C@H](Cc4ccccc4F)NC1=O)(C2)C3 [compound 405, cyclo(FLac-NMeOrnAc-3Pal-Nle-Phe2F-Nle-NMe3Pal-amBCP)] (cyclo([3Pal][Nle][Phe(2-F)][Nle][NMe3Pal][X1][PhLac][X29]))",> 50.8 µM
12,"CCCC[C@@H]1NC(=O)[C@H](Cc2cccnc2)NC(=O)[C@H](C)N(C)C(=O)[C@H](Cc2ccc(OC)cc2)NC(=O)C23CC(CNC(=O)[C@H](Cc4cccnc4)N(C)C(=O)[C@H](CCCC)NC(=O)[C@H](Cc4ccccc4F)NC1=O)(C2)C3 [compound 169, cyclo(TyrOMe-NMeA-3Pal-Nle-Phe2F-Nle-NMe3Pal-amBCP)] (cyclo([3Pal][Nle][Phe(2-F)][Nle][NMe3Pal][X1]Y(Me)[NMeA]))",> 50.8 µM
13,"CCCCC[C@@H]1NC(=O)[C@H](Cc2ccc(OC)cc2)NC(=O)[C@H](CC2CCC2)NC(=O)[C@H](Cc2cccnc2)NC(=O)[C@H](CCCNC(=N)N)NC(=O)[C@H](Cc2ccccc2F)NC(=O)CSC[C@@](C)(C(N)=O)NC(=O)[C@H](Cc2ccccc2)N(C)C1=O [compound 370, cyclo(Phe2F-R-3Pal-cBuA-TyrOMe-Ahp-NMeF-aMeCl-ClAc)]",> 50.8 µM
14,"CCCC[C@H]1/C=C\[C@@H](Cc2cccnc2)C(=O)NCC23CC(C2)(C3)C(=O)O[C@@H](Cc2ccccc2)C(=O)N(C)[C@@H](C)C(=O)N[C@@H](Cc2cncnc2)C(=O)N[C@@H](CCCC)C(=O)N[C@@H](Cc2ccccc2F)C(=O)N1 [SEQ ID NO: 137, cyclo(FLac-NMeA- PyrimAla-Nle-Phe2F- Nlecalken3Pal-amBCP)] (cyclo([NMeA][Ala(pyrimidin-5-yl)][Nle][Phe(2-F)][X48][X1][PhLac]))",11.2 µM
15,"CCCC[C@@H]1NC(=O)[C@H](Cc2cccnc2)NC(=O)[C@H](C)N(C)C(=O)[C@H](Cc2ccccc2)OC(=O)C23CC(CNC(=O)[C@H](CC4CCCCC4)N(C)C(=O)[C@H](CCCC)NC(=O)[C@H](Cc4ccccc4F)NC1=O)(C2)C3 [compound 232, cyclo(FLac-NMeA-3Pal-Nle-Phe2F-Nle-NMeCha-amBCP)] (cyclo([3Pal][Nle][Phe(2-F)][Nle][NMeCha][X1][PhLac][NMeA]))",> 50.8 µM
16,"CCCC[C@@H]1NC(=O)[C@H](Cc2cccnc2)NC(=O)[C@H](C)N(C)C(=O)[C@H](Cc2ccc(O)cc2)NC(=O)C23CC(CNC(=O)[C@H](Cc4cccnc4)N(C)C(=O)[C@H](CCCC)NC(=O)[C@H](Cc4ccccc4F)NC1=O)(C2)C3 [compound 168, cyclo(Y-NMeA-3Pal-Nle-Phe2F-Nle-NMe3Pal-amBCP)] (cyclo(Y[NMeA][3Pal][Nle][Phe(2-F)][Nle][NMe3Pal][X1]))",46.4 µM
17,"CCCC[C@@H]1NC(=O)[C@H](Cc2cccnc2)NC(=O)[C@H](CCCNC(=N)N)N(C)C(=O)[C@H](Cc2ccccc2)NC(=O)[C@@H]2C[C@H]2CNC(=O)[C@H](Cc2ccccc2)N(C)C(=O)[C@H](CCCCN=[N+]=[N-])NC(=O)[C@H](Cc2ccc(OC)cc2)NC1=O [compound 94, cyclo(F-NMeR-3Pal-Nle-TyrOMe-LysN3-NMeF-tamcPr)] (cyclo(F[NMeR][3Pal][Nle]Y(Me)[Lys(N3)][NMeF][X21]))",> 50.8 µM
18,"C[C@H]1C(=O)N[C@@H](Cc2cncnc2)C(=O)N[C@@H](CCC(C)(F)F)C(=O)N[C@@H](Cc2ccccc2F)C(=O)N[C@@H](CCC(C)(F)F)C(=O)N(C)[C@@H](Cc2ccccc2)C(=O)NCC23CC(C2)(C3)C(=O)O[C@@H](Cc2ccccc2)C(=O)N1C [compound 288, cyclo(FLac-NMeA-PyrimAla-Nle3F2-Phe2F-Nle3F2-NMeF-amBCP)] (cyclo([NMeA][Ala(pyrimidin-5-yl)][Nle(5,5-F2)][Phe(2-F)][Nle(5,5-F2)][NMeF][X1][PhLac]))",6.61 µM
19,"CCCCC[C@@H]1NC(=O)[C@H](Cc2ccc(OC)cc2)NC(=O)[C@H](CC2CCC2)NC(=O)[C@H](Cc2cccnc2)NC(=O)[C@H](CCCNC(=N)N)NC(=O)[C@H](Cc2ccccc2)NC(=O)CSC[C@@](C)(C(N)=O)NC(=O)[C@H](Cc2cn(C)cn2)N(C)C1=O [compound 378, cyclo(F-R-3Pal-cBuA-TyrOMe-Ahp-NMeHis1Me-aMeCl-ClAc)] ({CH2CO}-FR[3Pal][Cba]Y(Me)[Ahp(2)][NMeHis(τ-Me)][αMeC]-NH2; thioether N-8)",> 50.8 µM
20,"C[C@H]1C(=O)N[C@@H](Cc2cccnc2)C(=O)N[C@@H](CC2CC2)C(=O)N[C@@H](Cc2ccccc2F)C(=O)N[C@@H](CCC(C)(C)F)C(=O)N(C)[C@@H](Cc2cncc(F)c2)C(=O)NCC23CC(C2)(C3)C(=O)O[C@@H](Cc2ccccc2)C(=O)N1C [compound 284, cyclo(FLac-NMeA-3Pal-cPrA-Phe2F-hL3F-NMe3Pal5F-amBCP)] (cyclo([3Pal][Ala(cPr)][Phe(2-F)][X11][NMe3Pal(5-F)][X1][PhLac][NMeA]))",4.59 µM
